Measured values: patent publication US20080027088A1, “Imidazole-Based Hmg-Coa Reductase Inhibitors” (Warner-Lambert Company, LLC, priority 2004, published 2008)

Assays:
[1] = tested on: ApoE KO mice fed a Western diet; assay: Atherosclerotic lesion and macrophage area in aortic root and brachiocephalic artery, 12 weeks; format: in vivo
Description: (§1) For histological analysis, the mice were perfused and fixed in Zinc-Tris fixative. Paraffin embedded sections were stained with Masson's Trichrome. Intimal macrophages were immunohistochemically stained using MAC-2 antibody (clone M3/38 from Cedarlane Laboratories Limited) counterstained with Verhoeff elastic stain. T-lymphocytes were immunohistochemically stained with rat CD3 antibody (clone CD3-12, Serotec). Lesion thickness and area occupied by macrophages were determined using Image Pro Plus software.
FIGS. 11 & 12. Formation of atherosclerotic lesions in aortic root and brachiocephalic artery. ApoE KO mice fed with Western-diet in the absence or presence of myriocin, ApoE KO mice and C57BI/6J mice fed with normal chow were sacrificed and fixed with Zinc-Tris. The cross-section of brachiocephalic artery was stained by Masson's Trichrome and MAC-2 antibody counterstained with Verhoeff elastic stain. Atherosclerotic lesion (black bars) and macrophage size (gray bars) in brachiocephalic artery and in aortic root were quantified by using Image Pro Plus. The values reported are mean±SEM (n=5, *P<0.01, WD vs WD plus myriocin; #P<0.01, normal vs WD plus myriocin). Bar represents 100 μm.

[2] = tested on: ApoE KO mice fed a Western diet; assay: Lesion development in the cuffed femoral artery, 4 weeks; format: in vivo
Description: Animal experiments—Male C57BI/6J and ApoE KO mice on C57BI/6J background were obtained from the Jackson Laboratory (Bar Harbor, Me.) or Taconic (Germantown, N.Y.) (Plaque formation in ApoE KO mice is lipid-driven (A. S. Plump et al., Cell. 1992;71 (2):343-53)). Myriocin was mixed with Western diet containing 0.21% cholesterol and 21% fat. 8-12-week-old mice received 0.3 mg myriocin/kg/day for 12 weeks (Table 1). 10-12 week-old ApoE KO mice (n=8) were pre-fed a western diet for 2 weeks and mice received various concentrations of myriocin for 4 weeks in diet admix. Control groups consisted of ApoE KO mice fed normal chow or Western diet without myriocin, and normal chow-fed C57BI/6J mice. Body weight and chow feeding was measured every week to examine the food consumption. For the femoral artery cuff model, 8-10 week-old male ApoE KO mice were anethetized and the right femoral artery was dissected from its surroundings. A nonconstrictive polyethylene cuff (Portex, 0.40-mm inner diameter, 0.80-mm outer diameter, and 1.5-mm length) was placed looselyaround the right femoral artery.
as §1
FIG. 5. Lesion Development in the Cuffed Femoral Artery of ApoE KO mice Fed a Western Diet. Mice were anesthetized and the right femoral artery was dissected from its surroundings. […] Atherosclerotic lesion (black bar) and macrophage size (gray bar) in the femoral artery were quantified by using Image Pro Plus software (FIG. 5A). Plasma serum amyloid A levels were determined by colormetric ELISA (FIG. 5B). […]

[3] = target: T1, serine palmitoyltransferase (SPT) (Mus musculus, UniProt O35704+P97363); assay: SPT activity of liver cell-free homogenate (14C-serine, palmitoyl CoA, TLC); format: in vivo, mice; conditions: 0.3 mg/kg/day, 12 weeks
T1 construct: from tissue; host or cells: mouse liver (ApoE KO and C57Bl/6J mice), cell-free homogenate
T1 sequence (P97363 1-560): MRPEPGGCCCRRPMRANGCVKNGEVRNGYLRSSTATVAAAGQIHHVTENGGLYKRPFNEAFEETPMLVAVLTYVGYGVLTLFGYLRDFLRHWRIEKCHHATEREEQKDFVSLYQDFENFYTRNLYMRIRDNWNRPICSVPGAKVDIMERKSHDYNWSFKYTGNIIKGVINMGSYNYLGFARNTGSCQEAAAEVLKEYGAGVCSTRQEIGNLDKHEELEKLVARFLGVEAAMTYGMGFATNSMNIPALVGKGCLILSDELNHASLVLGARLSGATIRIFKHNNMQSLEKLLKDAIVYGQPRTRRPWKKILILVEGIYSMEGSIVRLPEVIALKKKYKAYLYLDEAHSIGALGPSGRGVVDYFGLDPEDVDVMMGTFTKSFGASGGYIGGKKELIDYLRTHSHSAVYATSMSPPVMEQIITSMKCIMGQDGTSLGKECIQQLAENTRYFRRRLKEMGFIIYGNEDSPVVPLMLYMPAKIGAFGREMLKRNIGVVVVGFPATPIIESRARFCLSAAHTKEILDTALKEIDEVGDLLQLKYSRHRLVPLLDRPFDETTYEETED
T1 sequence (O35704 1-473): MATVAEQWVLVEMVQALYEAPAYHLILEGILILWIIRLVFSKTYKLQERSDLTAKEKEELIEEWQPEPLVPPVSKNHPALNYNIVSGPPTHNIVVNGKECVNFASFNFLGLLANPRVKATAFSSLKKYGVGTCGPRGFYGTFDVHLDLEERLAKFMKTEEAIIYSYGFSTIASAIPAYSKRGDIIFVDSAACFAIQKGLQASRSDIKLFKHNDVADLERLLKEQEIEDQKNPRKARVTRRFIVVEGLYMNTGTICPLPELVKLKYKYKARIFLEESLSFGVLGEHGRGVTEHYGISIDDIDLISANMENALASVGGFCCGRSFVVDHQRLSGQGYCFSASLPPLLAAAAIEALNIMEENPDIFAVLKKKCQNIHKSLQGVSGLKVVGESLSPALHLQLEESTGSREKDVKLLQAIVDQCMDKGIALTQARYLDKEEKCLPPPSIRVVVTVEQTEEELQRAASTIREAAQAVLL
T1 sequence (Q8R207 1-71 partner): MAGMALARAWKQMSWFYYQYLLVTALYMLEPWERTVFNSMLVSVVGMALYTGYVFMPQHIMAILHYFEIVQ
Description: Liver tissues from each group were homogenized and SPT activity was measured using ^14C-serine and palmitoyl CoA as substrates and thin-layer chromatography (TLC) analysis (K. Gable et al., J. Biol. Chem. 2000;275(11):7597-603). FIGS. 1-A, 1-B, 1-C, 1-D and 1-E. SPT gene expression and enzyme activity. Mice were treated with 0.3 mg/kg/day myriocin for 12 weeks by mixing with Western diet chow. Liver was isolated and total mRNA and cell-free homogenate were prepared. SPT mRNA expression was quantified by quantitative RT-PCR. Expression was described as a ratio of LCB1 (A) or LCB2 (B) mRNA to 18s RNA or to rodent GAPDH RNA (n=5, P>0.05). SPT activity of cell-free homogenate (C) was measured with ^14C-labeled Serine and palmitoyl-coenzyme A as substrates and analyzed by TLC. Relative amounts of 3-ketosphinganine were determined by densitometry scanning. The values reported are mean±SEM (n=3, *P<0.05).

For `CCCCCCC(=O)CCCCCC/C=C/C[C@@H](O)[C@H](O)[C@@](N)(CO)C(=O)O` [myriocin], the “decrease in lesion area, brachiocephalic artery” value ([1]; 0.3 mg/kg) was 76%, the “decrease in macrophage area, brachiocephalic artery” value ([1]; 0.3 mg/kg) was 74% and the “lesion area decreased, aortic root” value ([1]; 0.3 mg/kg) was 44%. The “macrophage area decreased, aortic root” value ([1]; 0.3 mg/kg) was 31%, the “necrotic core in lesions” value ([1]; myriocin-treated, Western diet-fed ApoE KO mice) was “did not develop necrotic core” and the “reduction of development of atherosclerotic lesions, cuffed femoral artery” value ([2]; 0.1 mg/kg/day) was 43%. The “reduction of macrophage accumulation, cuffed femoral artery” value ([2]; 0.1 mg/kg/day) was 47%, the “lesion area reduced, cuffed femoral artery” value ([2]; 0.3 mg/kg/day, vs no-myriocin control) was “more than 98%” and the “decrease of SPT activity in the liver” value ([3]; compared with the C57BI/6J control group) was 48%. The “decrease of SPT activity in the liver” value ([3]; compared with untreated Western diet-fed ApoE KO mice) was 66%.
